Measured values taken from paper PMC7383964 (Chemmedchem, 2020).

How the values were obtained:
in vitro = details: male, Sprague-Dawley, rat, microsomes, pH 7.4
[1] = rat, microsomes
HEK293T cells = details: human

| SMILES | half-life (in vitro) | Intrinsic clearance [1] | Cell density relative to the effect of vehicle (DMSO) (HEK293T cells) |
| --- | --- | --- | --- |
| O=C(/N=N/c1ccc(F)cc1)N1CCCCC1 [Compound 18, (E)‐((4‐Fluorophenyl)diazenyl)(piperidin‐1‐yl)methanone] | 1.22 ± 0.2 h | 97 ± 15 µL/min/mg |  |
| O=C(/C=C/c1ccc(F)cc1)N1CCCCC1 [Compound 19, (E)‐3‐(4‐Fluorophenyl)‐1‐(piperidin‐1‐yl)prop‐2‐en‐1‐one] | 1.42 ± 0.3 h | 85 ± 20 µL/min/mg |  |
| C=CCN1CC[C@]23c4c5ccc(O)c4O[C@H]2C(=O)CC[C@@]3(O)[C@H]1C5 [naloxone] |  |  | 84±5% |
